Measured values from the NIST ThermoML archive (doi:10.1021/je700445y).
Numbers after ± are expanded uncertainties.

Columns and labels:
[1] = Liquid; for mass density: 293.15 K, 101.33 kPa; for vapor or sublimation pressure: Ebulliometric method (Recirculating still)
[2] = refractive index (Na D-line) (dimensionless); conditions: 293.15 K; 101.33 kPa; Liquid; Standard Abbe refractometry

| SMILES | mass density [1] | vapor or sublimation pressure ([1]; 341.8 K) | refractive index [2] | vapor or sublimation pressure ([1]; 443.8 K) | vapor or sublimation pressure ([1]; 398.96 K) |
| --- | --- | --- | --- | --- | --- |
| CCCCCC [hexane] | 660 ± 2 kg/m3 | 101.33 ± 0.53 kPa | 1.37486 ± 0.00075 |  |  |
| C=CCCCCCCCC [1-decene] | 741 ± 1 kg/m3 |  | 1.4214 ± 0.00073 | 101.33 ± 0.52 kPa |  |
| CCCCCCCC [octane] | 708 ± 1 kg/m3 |  | 1.3965 ± 0.00075 |  | 101.33 ± 0.53 kPa |
